Data published in patent publication US20240262803A1, “COMPOUNDS, COMPOSITIONS AND METHODS OF TREATING DISORDERS” (Chungdu Anticancer Bioscience Ltd, priority 2021, published 2024).
pEC50: −log10 of the molar value. Entries after “also recorded” stand apart in the source; their conditions may differ. Read-outs that look alike come from different tables or passages of the source.

Key:
[1] = tested on: lung cancer cell line NCI-H596; assay: MTT assay of cellular proliferation, NCI-H596; format: cell-based; settings: Homo sapiens, read-out: EC50: Concentration that inhibits 50% of proliferation
Protocol: (§1) Six lung cancer cell lines (NCI-H23, NCI-H460, NCI-H596, NCI-H2170, Calu-6 and A549), two colon cancer cell lines (HCT116 and SW460), one breast cancer cell line MDA-MB-231, one gastric cancer cell line NCI-N87, one prostate cancer cell line DU145, one cervical cancer cell line Hela, and one glioblastoma cell line T98G were obtained from ATCC. The T2 HCC cell line was derived from a mouse liver cancer model initiated by a transgene of MYC (Reference). All cell lines were cultured in DMEM (Gibco, Cleveland, TN, USA) supplemented with 5% fetal bovine serum (Gibco), penicillin (100 U/mL)-streptomycin (100 μg/mL) (Gibco, Cat. No. 15140-122), 2 mM L-glutamine (Gibco, 200 mM solution, Cat. No. 25030081), and 1 mM sodium pyruvate (Gibco, 100 mM solution, Cat. No. 11360070) at 37° C. in a humidified incubator that was maintained at 5% CO2.
(§2) The MTT assay measures cellular metabolic activity as a proxy for cell viability and involves the conversion of the water-soluble yellow dye MTT [3-(4,5-dimethylthiazol-2-yl)-2,5-diphenyltetrazolium bromide] into an insoluble purple formazan by the action of mitochondrial reductase. Formazan is then solubilized and its concentration is determined by measuring the optical density (OD) value at a wavelength of 570 nm. The value is in proportional to the number of live cells with excellent linearity up to ˜10^6 cells per well. The MTT assay was used to determine the EC50 value, the concentration of a compound that leads to 50% inhibition of cellular proliferation. Briefly, cells were split when growing to the mid-Log phase. Cells in 100 μL of culture medium were seeded into each well of 96-well microplates and cultivated for 15˜24 hours to reach a confluence of 20˜30% and were then exposed to drugs at concentrations ranging from 1 nM to 10 μM. At the endpoint, 20 μL of a MTT stock solution in DMSO (5 mg/mL) was added to each well that contains […] of DMEM. The microplates were left in the cell culture incubator for 3˜4 h before subjected to solubilization and determination of formazan at A570 in a microplate reader (BioTek ELX808iu). […] Therefore, these compounds might hold a broad utility in the treatment of a large variety of human malignancies.

RPEMYC^H2B-GFP cells [2] = assay: Mechanism-informed phenotypic screening assay (mitotic arrest, polyploidy; GE IN-Cell Analyzer 2000); format: cell-based; settings: 20 nM to 20 μM, 24, 48 or 72 hours, read-out: Mitotic Arrest (≥5%)
[3] = tested on: liver cancer cell line T2 HCC; assay: Minimal effective concentration that elicits polyploidy, T2 HCC; format: cell-based; settings: Mus musculus, read-out: MECP: Minimal effective concentration that elicits polyploidy
[4] = tested on: lung cancer cell line NCI-H23; assay: Minimal effective concentration that elicits polyploidy, NCI-H23; format: cell-based; settings: Homo sapiens, read-out: MECP: Minimal effective concentration that elicits polyploidy
[5] = tested on: human lung cancer cell line NCI-H23; assay: Soft agar colony formation assay, NCI-H23; format: cell-based; settings: NCI-H23, 3D culture, FIG. 2
Protocol: as §1
Measuring the ability of cells to grow in soft agar has been popularly believed as the gold standard assay for cellular transformation in vitro. In the Soft Agar Assay, cells grow from single cells to cell colonies in a semi-solid agar solution that keeps them away from the solid surface and allows growth in an anchorage-independent way.
The anchorage-independent growth of cells is one of the hallmarks of cancer cells. Normal epithelial cells are supported by basement membranes that provide survival and proliferative signals while undergo a type of apoptosis called anoikis when lose their attachment to the extracellular matrix. Cancer cells, in contrast, evade attachment-induced apoptosis, leading to uncontrolled proliferation and metastasis. The Soft Agar Colony Formation Assay allows testing of the therapeutic efficacy of compounds against anchorage-independent 3D growth of cancer cells in vitro. The assay was performed in 6-well plates with two layers of agar. For the first, 0.75% agar in DMEM medium was melted in a microwave oven and poured to form a bottom layer. […] Cell culture medium was changed once every two days until colonies were ready to photograph. […]

[6] = tested on: liver cancer cell line T2 HCC; assay: MTT assay of cellular proliferation, T2 HCC; format: cell-based; settings: Mus musculus, read-out: EC50: Concentration that inhibits 50% of proliferation
In short: (§3)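 EC50, the concentration halving proliferation, came from formazan absorbance at 570 nm after 3–4 h MTT incubation. Cells at 20–30% confluence were treated with drug over 1 nM–10 μM. The culture medium was DMEM plus 5% FBS, glutamine and pyruvate at 37° C.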

[7] = tested on: gastric cancer cell line NCI-N87; assay: MTT assay of cellular proliferation, NCI-N87; format: cell-based; settings: Homo sapiens, read-out: EC50: Concentration that inhibits 50% of proliferation
In short: as §3

[8] = tested on: prostate cancer cell line DU145; assay: Minimal effective concentration that elicits polyploidy, DU145; format: cell-based, human
[9] = tested on: gastric cancer cell line NCI-N87; assay: Minimal effective concentration that elicits polyploidy, NCI-N87; format: cell-based; settings: Homo sapiens, read-out: MECP: Minimal effective concentration that elicits polyploidy
[10] = tested on: lung cancer cell line NCI-H460; assay: MTT assay of cellular proliferation, NCI-H460; format: cell-based; settings: Homo sapiens, read-out: EC50: Concentration that inhibits 50% of proliferation
Protocol: as §1, §2

RPEMYC^H2B-GFP cells [11] = assay: Mechanism-informed phenotypic screening assay (mitotic arrest, polyploidy; GE IN-Cell Analyzer 2000); format: cell-based; settings: 20 nM to 20 μM, 24, 48 or 72 hours, read-out: Min. Effective conc. for polyploidy (≥5%)
In short: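 Cells expressing Histone 2B-EGFP (RPEMYC^H2B-GFP) were plated 18-24 h before exposure to compounds at 20 nM to 20 μM. At 24, 48 or 72 h, imaging scored mitotic arrest or change in DNA content. Value is the lowest concentration giving polyploid accumulation at 48 h.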

pEC50 [1] | pEC50 [6] | pEC50 [7] | pEC50 [10] | Compound | minimal effective concentration (RPEMYC^H2B-GFP cells [2]) [µM] | minimal effective concentration [3] [µM] | minimal effective concentration [4] [µM] | anchorage-independent growth in soft agar [5] | MECP: Minimal effective concentration that elicits polyploidy [8] | minimal effective concentration [9] [µM] | minimal effective concentration (RPEMYC^H2B-GFP cells [11]) [µM]
4.52 to 5.00 | 6.00 to 9.00 | 6.00 to 9.00 | 4.52 to 5.00 | COC(=O)c1cc(Oc2ncccc2-c2ccncc2)cc(C(=O)OC)c1 [Compound 1, Dimethyl 5-([3,4′-bipyridin]-2-yloxy)isophthalate] | 1 | 0.001 to 1 | 0.001 to 1 | completely blocked the growth | A (A: 1 nM < conc. ≤ 1 μM) | 0.001 to 1 | 1
6.00 to 9.00 | 6.00 to 9.00 | 6.00 to 9.00 | 4.52 to 5.00 | COC(=O)c1cc(OC)cc(Oc2ncccc2-c2ccncc2)c1 [Compound 2, Methyl 3-([3,4′-bipyridin]-2-yloxy)-5-methoxybenzoate] | 1 | 0.001 to 1 | 0.001 to 1 | Suppresses the Anchorage-independent Growth; also recorded: completely blocked the growth | A (A: 1 nM < conc. ≤ 1 μM) | 0.001 to 1 | 1
5.00 to 6.00 | 6.00 to 9.00 | 6.00 to 9.00 | 4.52 to 5.00 | COC(=O)c1cc(Oc2ncccc2-c2ccnc(N)n2)cc(C(=O)OC)c1 [Compound 21, dimethyl 5-((3-(2-aminopyrimidin-4-yl)pyridin-2-yl)oxy)isophthalate] | 1 | 0.001 to 1 | 0.001 to 1 | – | A (A: 1 nM < conc. ≤ 1 μM) | 0.001 to 1 | 1
6.00 to 9.00 | 5.00 to 6.00 | 6.00 to 9.00 | 4.52 to 5.00 | COC(=O)c1cc(OC)cc(Oc2ncccc2-c2ccnc(N)n2)c1 [Compound 23, Methyl 3-((3-(2-aminopyrimidin-4-yl)pyridin-2-yl)oxy)-5-methoxybenzoate] | 1 | 0.001 to 1 | 0.001 to 1 | Suppress the Anchorage-independent Growth; also recorded: completely blocked the growth | A (A: 1 nM < conc. ≤ 1 μM) | 0.001 to 1 | 1
